According to US20140315886A1, “QUINAZOLINES AS THERAPEUTIC COMPOUNDS AND RELATED METHODS OF USE” (OTSUKA PHARMACEUTICAL CO., LTD., priority 2011, published 2014):
pIC50: −log10 of the molar value.

Biological target: T1, purified STEP46 enzyme (Homo sapiens, UniProt P54829)
T1 sequence (P54829 197-565 limits assumed): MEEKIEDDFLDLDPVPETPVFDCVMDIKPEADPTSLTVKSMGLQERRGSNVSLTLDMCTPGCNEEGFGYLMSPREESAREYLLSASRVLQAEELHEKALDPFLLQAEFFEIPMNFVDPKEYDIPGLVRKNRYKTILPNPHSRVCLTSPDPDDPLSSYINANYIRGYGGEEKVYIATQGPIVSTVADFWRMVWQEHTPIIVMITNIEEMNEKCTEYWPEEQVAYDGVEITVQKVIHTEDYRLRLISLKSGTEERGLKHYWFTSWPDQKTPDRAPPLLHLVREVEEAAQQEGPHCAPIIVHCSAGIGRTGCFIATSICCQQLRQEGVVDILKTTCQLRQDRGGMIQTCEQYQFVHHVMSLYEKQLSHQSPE
Test: STEP46 biochemical assay (DiFMUP fluorescence phosphatase assay)
Conditions: DiFMUP 10 μM, read-out: STEP IC50
Protocol: Serial dilutions of compounds were performed in 100% DMSO and 1 uL of compounds were dispensed into 384-well black polystyrene plates (Corning, N.Y.). Compounds were incubated with 24 uL of buffer containing 50 mM Hepes, 1 mM DTT, 0.02% Brij35, 1 ng/well purified STEP46 enzyme for […] at room temperature. The reaction was initiated by addition of 25 uL of DiFMUP (6,8-difluoro-4-methylumbelliferyl phosphate) (InVitrogen, CA) with a final concentration of 10 μM and incubated at 27° C. for 90 mM Final DMSO concentration is 2%. Plates were read with florescence intensity at excitation/emission of 360/460 nm using a PheraStar plate reader (BMG Labtech, NC).
Data were expressed as percentage (%) inhibition of enzyme activity. 0% inhibition is defined as the RFUs (relative fluorescence units) in the absence of compounds and 100% inhibition is defined as RFUs in the absence of STEP46 enzyme. IC50 values of compounds with inhibitory activity against STEP46 were determined by GraphPad Prism (version 4.03) using four parameter logistic equation. Some compounds act as activators. For compounds showing STEP46 enzymatic activation, data are represented as percentage of inhibition but with negative values at three representative concentrations (25, 50 and 100 uM).

pIC50 | Compound
< 5.00 | Cn1ccc2c(-c3ccc4nc(-c5cccnc5)nc(NCc5ccccn5)c4c3)cccc21 [Compound 341]
5.00 to 6.00 | CCOc1ccc2nc(-c3cccnc3)nc(Nc3ccc(C)cn3)c2c1 [Compound 56]
< 5.00 | Cc1c(-c2cccc(F)c2)ccc2c(N3CCc4cc(Cl)ccc43)nc(-c3cccnc3)nc12 [Compound 117]
5.00 to 6.00 | CNc1nc(-c2ccc(C)nc2)nc2cc(-c3cc(F)ccc3F)ccc12 [Compound 161]
< 5.00 | CNc1nc(-c2cccnc2)nc2cc(C)c(-c3ccc(F)c(OC)c3)cc12 [Compound 304]
5.00 to 6.00 | CCOc1cccc(-c2ccc3c(NC)nc(-c4cccnc4)nc3c2)c1 [Compound 141]
< 5.00 | CNc1nc(-c2cccnc2)nc2ccc(-c3cccc(OC(C)C)c3)cc12 [Compound 257]
5.00 to 6.00 | CNc1nc(-c2cccnc2)nc2c(C)c(-c3ccncc3)ccc12 [Compound 293]
5.00 to 6.00 | Fc1ccc(-c2ccc3nc(-c4cccnc4)nc(Nc4cc(F)ccn4)c3c2)cc1 [Compound 442]
5.00 to 6.00 | CNc1nc(-c2cccnc2)nc2c(F)c(-c3ccc(F)cc3OC)ccc12 [Compound 543]
5.00 to 6.00 | CNc1nc(-c2cnccn2)nc2cc(-c3ccc(F)cc3)ccc12 [Compound 393]
5.00 to 6.00 | CNc1nc(-c2cccnc2F)nc2ccc(-c3cccc(F)c3)cc12 [Compound 214]
5.00 to 6.00 | CC(Nc1nc(-c2cccnc2)nc2ccc(-c3ccc(F)c(F)c3)cc12)c1ccccc1 (stereo not shown) [Compound 350]
5.00 to 6.00 | CNc1nc(-c2cncnc2)nc2ccc(-c3cccc(F)c3)cc12 [Compound 210]
> 6.00 | CNc1nc(-c2cccnc2)nc2c(F)c(-c3cc(F)cc(F)c3F)ccc12 [Compound 523]
> 6.00 | O=[N+]([O-])c1ccc2c(c1)CCN2c1nc(-c2cccnc2)nc2cc(-c3cccnc3)ccc12 [Compound 106]
5.00 to 6.00 | CNc1nc(-c2cccnc2)nc2cc(F)c(-c3ccc(F)cc3)cc12 [Compound 587]
5.00 to 6.00 | CNc1nc(-c2cccnc2)nc2c(F)c(-c3cccs3)ccc12 [Compound 533]
5.00 to 6.00 | Fc1cncc(Nc2nc(-c3cccnc3)nc3ccc(Cl)cc23)c1 [Compound 48]

The remaining lines, values behind:

Compound | pIC50
CNc1nc(-c2cccnc2)nc2ccc(-c3ccc4c(c3)SCC(=O)N4)cc12 [Compound 471] | 5.00 to 6.00
CNc1nc(-c2cnccn2)nc2cc(-c3ccc(F)c(F)c3)ccc12 [Compound 397] | 5.00 to 6.00
CNc1nc(-c2cccnc2)nc2cc(-c3cccs3)ccc12 [Compound 319] | 5.00 to 6.00
CC(Nc1nc(-c2cccnc2)nc2ccc(-c3ccccc3F)cc12)c1ccccn1 (stereo not shown) [Compound 366] | 5.00 to 6.00
CNc1nc(-c2cccnc2)nc2c(F)c(-c3ccco3)ccc12 [Compound 524] | 5.00 to 6.00
Clc1ccc2c(c1)CCN2c1nc(-c2cccnc2)nc2cc(Br)ccc12 [Compound 14] | 5.00 to 6.00
CC(Nc1nc(-c2cccnc2)nc2ccc(-c3ccc(F)cc3F)cc12)c1ccccc1 (stereo not shown) [Compound 607] | 5.00 to 6.00
CNc1nc(-c2cccnc2)nc2ccc(-c3cc(F)nc(F)c3)cc12 [Compound 283] | 5.00 to 6.00
CNc1nc(-c2cccnc2)nc2cc(-c3ccc(F)cc3OC)ccc12 [Compound 322] | 5.00 to 6.00
CNc1nc(-c2cccnc2)nc2cc(-c3ccc(F)cc3F)c(F)cc12 [Compound 551] | 5.00 to 6.00
CN(C)c1nc(-c2cccnc2)nc2ccc(-c3ccc(C4CC4)cc3)cc12 [Compound 308] | < 5.00
Nc1nc(-c2cccnc2)nc2cc(-c3cc(F)c(F)c(F)c3)ccc12 [Compound 312] | 5.00 to 6.00
Cc1c(-c2ccc(C#N)cc2)ccc2c(N(C)C)nc(-c3cccnc3)nc12 [Compound 291] | 5.00 to 6.00
CNc1nc(-c2cccnc2)nc2cc(-c3ccoc3)ccc12 [Compound 318] | < 5.00
COc1ccc2nc(-c3cccnc3)nc(N3CCc4ccc(Cl)cc43)c2c1 [Compound 4] | 5.00 to 6.00
Clc1ccc2c(c1)CCN2c1nc(-c2cccnc2)nc2ccc(-c3ccc4c(c3)OCO4)cc12 [Compound 76] | 5.00 to 6.00
Fc1ccc(-c2ccc3nc(-c4cccnc4)nc(-c4cscn4)c3c2)c(F)c1 [Compound 421, 4-(6-(2,4-difluorophenyl)-2-(pyridin-3-yl)quinazolin-4-yl)thiazole] | > 6.00
CNc1nc(-c2cccnc2)nc2cc(-c3c(F)cc(F)cc3F)ccc12 [Compound 454] | 5.00 to 6.00
CNc1nc(-c2cccnc2)nc2cc(-c3c(F)cccc3F)ccc12 [Compound 455] | 5.00 to 6.00
CNc1nc(-c2cccnc2)nc2c(F)c(-c3cc(F)cc(F)c3)ccc12 [Compound 516] | > 6.00
Cc1c(-c2cncnc2)ccc2c(N3CCc4cc(Cl)ccc43)nc(-c3cccnc3)nc12 [Compound 115] | > 6.00

Compound | pIC50
CNc1nc(-c2cccnc2)nc2c(F)c(-c3ccc(OC)c(F)c3)ccc12 [Compound 544] | > 6.00
CNc1nc(-c2cccnc2)nc2c(F)cc(-c3ccccc3C#N)cc12 [Compound 567] | > 6.00
c1ccc(CNc2nc(-c3cccnc3)nc3cc(-c4cc5ccccc5o4)ccc23)nc1 [Compound 347] | 5.00 to 6.00
CNc1nc(-c2cccnc2)nc2c(-c3ccc(F)c(F)c3)ccc(OC)c12 [Compound 496] | 5.00 to 6.00
CNc1nc(-c2cccnc2)nc2cc(-c3c(F)ccc(F)c3F)ccc12 [Compound 453] | 5.00 to 6.00
O=[N+]([O-])c1ccc2c(c1)CCN2c1nc(-c2cccnc2)nc2cc(-c3ccc(F)cc3F)ccc12 [Compound 104] | > 6.00
CNc1nc(-c2cccnc2)nc2c(F)cc(-c3ccc(C#N)cc3)cc12 [Compound 571] | 5.00 to 6.00
CNc1nc(-c2cccnc2)nc2ccc(-c3ccc(F)cc3F)c(OC)c12 [Compound 487] | 5.00 to 6.00
CNc1nc(-c2cccnc2)nc2c(OC)cc(-c3cccc(Cl)c3)cc12 [Compound 305] | 5.00 to 6.00
Fc1ccccc1-c1ccc2c(N3CCc4cc(Cl)ccc43)nc(-c3cccnc3)nc2c1 [Compound 95] | 5.00 to 6.00
CNc1nc(-c2cnccn2)nc2ccc(-c3ccc(F)c(F)c3)c(F)c12 [Compound 977] | 5.00 to 6.00
Fc1ccc(-c2ccc3nc(-c4cccnc4)nc(N4CCc5ccc(Cl)cc54)c3c2)cc1 [Compound 93] | 5.00 to 6.00
CNc1nc(-c2cnccn2)nc2ccc(-c3cc(F)cc(F)c3)c(F)c12 [Compound 980] | 5.00 to 6.00
COc1ccc2nc(-c3cccnc3)nc(Nc3ccnc(F)c3)c2c1 [Compound 43] | > 6.00
CNc1nc(-c2cccnc2)nc2ccc(-c3ccc(S(C)(=O)=O)c(C(F)(F)F)c3)cc12 [Compound 199] | 5.00 to 6.00
Fc1ccc(-c2ccc3nc(-c4cccnc4)nc(-c4ncco4)c3c2)c(F)c1 [Compound 425] | 5.00 to 6.00
O=[N+]([O-])c1ccc2c(c1)CCN2c1nc(-c2cccnc2)nc2ccc(-c3cccc(F)c3F)cc12 [Compound 83] | > 6.00
Cc1ccc2c(c1)CCN2c1nc(-c2cccnc2)nc2ccc(-c3cccc(F)c3)cc12 [Compound 78] | 5.00 to 6.00
CNc1nc(-c2cccnc2)nc2c(-c3cccc(C#N)c3)cccc12 [Compound 272] | > 6.00
COc1cc(-c2ccc(F)cc2F)cc2c(N3CC(OC)C3)nc(-c3cccnc3)nc12 [Compound 741] | 5.00 to 6.00
CNc1nc(-c2cccnc2)nc2c(F)c(-c3cc(F)c(F)cc3F)ccc12 [Compound 522] | 5.00 to 6.00
